pEC50: −log10 of the molar value. Like-named read-outs stand apart in the source and are kept apart here.
Columns and labels:
HBV = experiment: HepAD38 antiviral screen: reduction of viral product accumulation (virion DNA by qPCR; HBsAg/HBeAg ELISA); type: cell-based; settings: Hepatitis B virus; for pEC50: 120 h, HepAD38 cells, harvest five days after compound addition, reduction of viral product accumulation relative to no drug controls, read-out: HepAD38 EC50
Description: (§1) Methods: HepAD38 cells are maintained as previously reported (Ladner et al, Antimicrob. Agents Chemother. 1997, […], 1715). Briefly, cells are passaged upon attaining confluency in DMEM/F12 media in the presence of 10% FBS, Penn/Strep, 250 μg/mL G418, and 1 μg/ml tetracycline. Novel compounds are screened by first washing cells three times with PBS to remove tetracycline, and plating in 96 well plates at 35,000 cells/well. Compounds dissolved in DMSO are then diluted 1:200 into wells containing cells. Five days after compound addition, material is harvested for analysis. For an extended 8 day analysis, cells are plated and treated as described above, but media and compound are refreshed on d2 and d5 post initial treatment.
On harvest day, virion DNA is obtained by lysing with Sidestep Lysis and Stabilization Buffer and then quantified via quantitative real time PCR. Commercially available ELISA kits are used to quantitate the viral proteins HBsAg (Alpco) or HbeAg (US Biological) by following the manufacturer's recommended protocol after diluting samples to match the linear range of their respective assays. Irrespective of readout, compound concentrations that reduce viral product accumulation in the cell lysates or supernatants by relative to no drug controls (EC50) are reported; EC50 ranges are as follows: A<1 μM; B 1-10 μM; C>10 μM.

[1] = Compound toxicity by ATPlite 1 Step (total ATP levels) in HepAD38 cells; type: cell-based; settings: human, day of harvest, concentration reducing total ATP levels by 50% relative to no drug controls
Description: as §1
Additionally, on day of harvest, compound toxicity is evaluated by treating cells with ATPlite 1 Step according to the manufacturer's protocol. Compound concentrations that reduce total ATP levels in wells by 50% relative to no drug controls (CC50) are reported; CC50 ranges are as follows: A>30 μM; B 10-30 μM; C<10 μM.

CC1=C(C#N)C(c2ccc(F)cc2Cl)N=C(c2nccs2)N1 (stereo not shown) [Example 32]
pEC50 (HBV): > 6.00 | CC50 [1]: > 30 µM

CCOC(=O)C1=C(CN2CC(F)(F)C[C@H]2C#N)NC(c2nccs2)=NC1c1ccc(F)cc1Cl (stereo partly shown) [Example 3]
pEC50 (HBV): > 6.00 | CC50 [1]: > 30 µM

Cn1ccc(C2=C(CC(=O)O)NC(c3nccs3)=NC2c2ccc(F)cc2Cl)n1 (stereo not shown) [Example 46]
pEC50 (HBV): < 5.00 | CC50 [1]: 10 to 30 µM

CCn1ccc(C2=C(C)NC(c3nccs3)=NC2c2ccc(F)cc2Cl)n1 (stereo not shown) [Example 34]
pEC50 (HBV): > 6.00 | CC50 [1]: > 30 µM

CC1=C(c2ccn(C)n2)C(c2ccc(F)cc2Cl)N=C(c2nccs2)N1 (racemic) [Example 16]
pEC50 (HBV): > 6.00 | CC50 [1]: > 30 µM

CC1=C(c2cc(C)no2)C(c2ccc(F)cc2Cl)N=C(c2nccs2)N1 (racemic) [Example 15]
pEC50 (HBV): > 6.00 | CC50 [1]: > 30 µM

CC(=O)C1=C(C)NC(c2nccs2)=NC1c1ccc(F)cc1Cl (racemic) [Example 11]
pEC50 (HBV): > 6.00 | CC50 [1]: > 30 µM

CCOP(=O)(OCC)C1=C(C)NC(c2nccs2)=NC1c1ccc(F)cc1Cl (racemic) [Example 26]
EC50 (HBV; HePAD38, 120 h, read-out: HepAD38 EC50 (μM)): > 10 µM | CC50 [1]: > 30 µM

CCOC(=O)[C@@H]1CC(F)(F)CN1CC1=C(c2ccn(C)n2)C(c2ccc(F)cc2Cl)N=C(c2nccs2)N1 (stereo partly shown) [Example 39]
pEC50 (HBV): > 6.00 | CC50 [1]: > 30 µM

CCOC(=O)C1=C(C)NC(N2CCCC2=O)=NC1c1ccc(F)cc1Cl (stereo not shown) [Example 29]
pEC50 (HBV): < 5.00 | CC50 [1]: > 30 µM

C=CCOC(=O)C1=CNC(c2nccs2)=NC1(C)c1ccc(F)cc1 (stereo not shown) [Example 51]
pEC50 (HBV): 5.00 to 6.00

CC1=C(c2ccccn2)C(c2ccc(F)cc2Cl)N=C(c2nccs2)N1 (racemic) [Example 19]
pEC50 (HBV): 5.00 to 6.00 | CC50 [1]: > 30 µM

COCC1=C(C)NC(c2nccs2)=NC1c1ccc(F)cc1Cl (racemic) [Example 10]
pEC50 (HBV): 5.00 to 6.00 | CC50 [1]: > 30 µM

Cn1ccc(C2=C(CN3CCOCC3)NC(c3nccs3)=N[C@H]2c2ccc(F)cc2Cl)n1 [Example 53]
pEC50 (HBV): > 6.00

CC1=C(c2ncco2)[C@H](c2ccc(F)cc2Cl)N=C(c2nccs2)N1 (single isomer, unassigned) [Example 13b]
pEC50 (HBV): > 6.00 | CC50 [1]: > 30 µM

Cn1ccc(C2=C(CN=[N+]=[N-])NC(c3nccs3)=NC2c2ccc(F)cc2Cl)n1 (stereo not shown) [Example 42]
pEC50 (HBV): > 6.00 | CC50 [1]: > 30 µM

CCOC(=O)C1=C(CN2CC(F)(F)C[C@H]2C(=O)NS(C)(=O)=O)NC(c2nccs2)=NC1c1ccc(F)cc1Cl (stereo partly shown) [Example 2]
pEC50 (HBV): 5.00 to 6.00 | CC50 [1]: > 30 µM

Cn1ccc(C2=C(CO)NC(c3nccs3)=NC2c2ccc(F)cc2Cl)n1 (stereo not shown) [Example 41]
pEC50 (HBV): > 6.00 | CC50 [1]: 10 to 30 µM

CCOC(=O)C1=C(C)NC(N2CCCC2)=NC1c1ccc(F)cc1Cl (stereo not shown) [Example 30]
pEC50 (HBV): < 5.00 | CC50 [1]: > 30 µM

CN(C)CC1=C(c2ccn(C)n2)C(c2ccc(F)cc2Cl)N=C(c2nccs2)N1 (stereo not shown) [Example 37]
pEC50 (HBV): < 5.00 | CC50 [1]: 10 to 30 µM

CC1=C(c2ncco2)[C@@H](c2ccc(F)cc2Cl)N=C(c2nccs2)N1 (single isomer, unassigned) [Example 13a]
pEC50 (HBV): 5.00 to 6.00 | CC50 [1]: > 30 µM

CC1=C(S(C)(=O)=O)C(c2ccc(F)cc2Cl)N=C(c2nccs2)N1 (racemic) [Example 25]
pEC50 (HBV): < 5.00 | CC50 [1]: > 30 µM

CNS(=O)(=O)C1=C(C)NC(c2nccs2)=NC1c1ccc(F)cc1Cl (stereo not shown) [Example 28]
pEC50 (HBV): < 5.00 | CC50 [1]: > 30 µM

CCOC(=O)C1=C(C)NC(C(=O)OC)=NC1c1ccc(F)cc1Cl (stereo not shown) [Example 31]
pEC50 (HBV): 5.00 to 6.00 | CC50 [1]: > 30 µM

CC1=C(c2ncco2)C(C)(c2ccc(F)cc2Cl)N=C(c2nccs2)N1 (stereo not shown) [Example 47]
pEC50 (HBV): < 5.00

CC1=C(C(=O)NS(C)(=O)=O)C(c2ccc(F)cc2Cl)N=C(c2nccs2)N1 (racemic) [Example 21]
pEC50 (HBV): < 5.00 | CC50 [1]: > 30 µM

CC1=C(c2ccnn2C)C(c2ccc(F)cc2Cl)N=C(c2nccs2)N1 (racemic) [Example 17]
pEC50 (HBV): > 6.00 | CC50 [1]: > 30 µM

COC(=O)/C=C1\NC(c2nccs2)=NC(c2ccc(F)cc2Cl)C1c1ccn(C)n1 (stereo not shown) [Example 45]
pEC50 (HBV): 5.00 to 6.00 | CC50 [1]: 10 to 30 µM

COCC1=C(c2ccn(C)n2)C(c2ccc(F)cc2Cl)N=C(c2nccs2)N1 (stereo not shown) [Example 35]
pEC50 (HBV): > 6.00 | CC50 [1]: > 30 µM

— US10702528B2, “Hepatitis B antiviral agents” (Enanta Pharmaceuticals, Inc., priority 2015, dated 2020)
